Data published in patent US10479784B2, “Substituted pyrazin-2-amines as inhibitors of ATR kinase” (Vertex Pharmaceuticals Incorporated, priority 2008, dated 2019).

biological target: full-length ATR (Homo sapiens (Human), UniProt Q13535); assay: ATR Inhibition Assay (radioactive-phosphate incorporation); type: biochemical; conditions: read-out: ATR Ki
Procedure, shortened: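 Ki(app) was derived by non-linear regression of background-corrected initial rates of 33P incorporation into an 800 μM target peptide, read by phosphocellulose filter scintillation counting. Reaction conditions: 5 nM full-length ATR, 10 μM [γ-33P]ATP, pH 7.5 Tris buffer with MgCl2 and DTT, 25 °C, 10-min preincubation, 24 h run.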

full-length ATR, sequence (Q13535 whole entry): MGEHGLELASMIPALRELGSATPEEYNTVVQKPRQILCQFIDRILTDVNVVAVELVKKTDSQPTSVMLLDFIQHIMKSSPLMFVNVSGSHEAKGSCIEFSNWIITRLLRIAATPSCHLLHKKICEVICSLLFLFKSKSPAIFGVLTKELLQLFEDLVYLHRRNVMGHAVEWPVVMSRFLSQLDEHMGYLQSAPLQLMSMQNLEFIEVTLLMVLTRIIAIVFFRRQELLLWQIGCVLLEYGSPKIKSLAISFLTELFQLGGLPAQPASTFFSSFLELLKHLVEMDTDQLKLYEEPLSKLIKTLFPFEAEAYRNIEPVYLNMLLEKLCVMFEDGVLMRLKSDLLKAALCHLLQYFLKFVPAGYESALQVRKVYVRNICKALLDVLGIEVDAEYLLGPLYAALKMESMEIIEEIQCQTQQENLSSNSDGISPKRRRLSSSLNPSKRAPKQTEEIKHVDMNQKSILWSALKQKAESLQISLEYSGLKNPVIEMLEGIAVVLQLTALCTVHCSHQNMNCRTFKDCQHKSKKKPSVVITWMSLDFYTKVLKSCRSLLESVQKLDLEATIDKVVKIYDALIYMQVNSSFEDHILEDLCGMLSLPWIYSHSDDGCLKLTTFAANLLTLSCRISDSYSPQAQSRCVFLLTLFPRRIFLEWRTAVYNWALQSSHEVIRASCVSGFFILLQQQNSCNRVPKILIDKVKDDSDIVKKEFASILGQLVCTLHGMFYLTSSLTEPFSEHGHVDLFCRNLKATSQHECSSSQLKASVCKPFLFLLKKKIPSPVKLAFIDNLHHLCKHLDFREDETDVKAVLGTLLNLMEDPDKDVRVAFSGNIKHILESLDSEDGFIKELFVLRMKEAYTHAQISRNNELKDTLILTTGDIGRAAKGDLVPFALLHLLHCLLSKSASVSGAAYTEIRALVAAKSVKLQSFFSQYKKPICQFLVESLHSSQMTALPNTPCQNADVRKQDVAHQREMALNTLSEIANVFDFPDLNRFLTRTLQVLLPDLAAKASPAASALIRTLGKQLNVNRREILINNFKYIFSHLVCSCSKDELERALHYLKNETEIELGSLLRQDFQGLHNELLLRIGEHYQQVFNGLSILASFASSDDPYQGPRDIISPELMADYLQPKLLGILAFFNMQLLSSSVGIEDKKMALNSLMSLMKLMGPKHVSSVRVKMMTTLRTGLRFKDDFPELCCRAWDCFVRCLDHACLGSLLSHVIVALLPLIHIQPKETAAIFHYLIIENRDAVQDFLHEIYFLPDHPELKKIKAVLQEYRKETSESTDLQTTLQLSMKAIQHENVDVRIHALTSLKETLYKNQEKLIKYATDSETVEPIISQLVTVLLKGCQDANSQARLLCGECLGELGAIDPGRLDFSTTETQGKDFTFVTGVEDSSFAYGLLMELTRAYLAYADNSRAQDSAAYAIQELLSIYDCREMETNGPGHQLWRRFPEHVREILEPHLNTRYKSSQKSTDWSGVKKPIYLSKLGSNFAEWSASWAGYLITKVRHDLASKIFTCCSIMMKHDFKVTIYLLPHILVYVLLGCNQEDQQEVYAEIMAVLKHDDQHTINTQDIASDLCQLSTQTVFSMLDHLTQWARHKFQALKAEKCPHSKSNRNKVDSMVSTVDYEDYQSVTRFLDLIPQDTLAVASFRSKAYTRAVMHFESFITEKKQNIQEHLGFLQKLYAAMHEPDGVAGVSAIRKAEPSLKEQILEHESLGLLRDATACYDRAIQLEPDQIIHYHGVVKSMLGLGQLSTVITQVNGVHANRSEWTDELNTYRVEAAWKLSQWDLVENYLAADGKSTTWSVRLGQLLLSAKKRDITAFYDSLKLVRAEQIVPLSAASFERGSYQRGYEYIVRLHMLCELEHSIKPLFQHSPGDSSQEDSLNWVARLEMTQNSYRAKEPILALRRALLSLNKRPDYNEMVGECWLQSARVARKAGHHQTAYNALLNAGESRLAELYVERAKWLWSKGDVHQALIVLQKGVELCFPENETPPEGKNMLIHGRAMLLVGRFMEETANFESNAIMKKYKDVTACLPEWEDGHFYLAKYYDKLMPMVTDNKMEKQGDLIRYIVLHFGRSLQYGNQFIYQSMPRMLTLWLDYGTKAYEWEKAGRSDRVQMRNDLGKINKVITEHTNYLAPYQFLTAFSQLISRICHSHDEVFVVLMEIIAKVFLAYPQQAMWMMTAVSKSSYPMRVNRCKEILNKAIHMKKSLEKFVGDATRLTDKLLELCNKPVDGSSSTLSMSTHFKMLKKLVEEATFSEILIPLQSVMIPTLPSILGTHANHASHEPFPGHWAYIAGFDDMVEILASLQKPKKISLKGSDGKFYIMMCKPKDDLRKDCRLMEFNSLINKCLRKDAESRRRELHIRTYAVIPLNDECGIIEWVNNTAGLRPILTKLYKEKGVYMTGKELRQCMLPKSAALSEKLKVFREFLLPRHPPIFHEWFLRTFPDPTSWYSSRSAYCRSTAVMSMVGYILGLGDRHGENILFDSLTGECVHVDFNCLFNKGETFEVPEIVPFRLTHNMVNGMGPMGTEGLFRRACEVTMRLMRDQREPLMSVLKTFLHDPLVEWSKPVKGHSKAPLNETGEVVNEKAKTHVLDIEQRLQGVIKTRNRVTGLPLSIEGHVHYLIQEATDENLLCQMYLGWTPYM

Ki [nM] | SMILES
≤ 10 | CNC(C)c1ccc(-c2nnc(-c3nc(-c4ccc(S(=O)(=O)C(C)C)cc4)cnc3N)o2)cc1 (stereo not drawn) [IA-212, 5-(4-isopropylsulfonylphenyl)-3-[5-[4-[1-(methylamino)ethyl]phenyl]-1,3,4-oxadiazol-2-yl]pyrazin-2-amine]
10 to 100 | CN(C)C(=O)c1ccc(-c2cnc(N)c(-c3nnc(-c4ccccc4OCCN)o3)n2)cc1 [IA-213, 4-[5-amino-6-[5-[2-(2-aminoethoxy)phenyl]-1,3,4-oxadiazol-2-yl]pyrazin-2-yl]-N,N-dimethyl-benzamide]
10 to 100 | CC(C)S(=O)(=O)c1ccc(-c2cnc(N)c(-c3nnc(CCN)o3)n2)cc1 [IA-214, 3-[5-(2-aminoethyl)-1,3,4-oxadiazol-2-yl]-5-(4-isopropylsulfonylphenyl)pyrazin-2-amine]
≤ 10 | CN(C)C(=O)c1ccc(-c2cnc(N)c(-c3nnc(-c4ccccc4O)o3)n2)cc1 [IA-215, 4-[5-amino-6-[5-(2-hydroxyphenyl)-1,3,4-oxadiazol-2-yl]pyrazin-2-yl]-N,N-dimethyl-benzamide]
100 to 5000 | Nc1ncc(-c2cccc3cccnc23)nc1-c1nnc(-c2ccccc2)o1 [IA-216, 3-(5-phenyl-1,3,4-oxadiazol-2-yl)-5-(8-quinolyl)pyrazin-2-amine]
100 to 5000 | CC(C)S(=O)(=O)c1ccc(-c2cnc(N)c(-c3nnc(NC(=O)[C@@H]4CCCN4)o3)n2)cc1 [IA-217, (2S)—N-[5-[3-amino-6-(4-isopropylsulfonylphenyl)pyrazin-2-yl]-1,3,4-oxadiazol-2-yl]pyrrolidine-2-carboxamide]
10 to 100 | NC(=O)c1ccc(-c2cnc(N)c(-c3nnc(-c4ccccc4)o3)n2)cc1 [IA-218, 4-[5-amino-6-(5-phenyl-1,3,4-oxadiazol-2-yl)pyrazin-2-yl]benzamide]
100 to 5000 | CC(C)S(=O)(=O)c1ccc(-c2cnc(N)c(-c3nnc(NC(=O)C(C)(C)N)o3)n2)cc1 [IA-219, 2-amino-N-[5-[3-amino-6-(4-isopropylsulfonylphenyl)pyrazin-2-yl]-1,3,4-oxadiazol-2-yl]-2-methyl-propanamide]
≤ 10 | CC(C)S(=O)(=O)c1ccc(-c2cnc(N)c(-c3nnc(-c4cccc(CN)c4)o3)n2)cc1 [IA-220, 3-[5-[3-(aminomethyl)phenyl]-1,3,4-oxadiazol-2-yl]-5-(4-isopropylsulfonylphenyl)pyrazin-2-amine]
100 to 5000 | N#CCc1ccccc1-c1cnc(N)c(-c2nnc(-c3ccccc3)o2)n1 [IA-221, 2-[2-[5-amino-6-(5-phenyl-1,3,4-oxadiazol-2-yl)pyrazin-2-yl]phenyl]acetonitrile]
≤ 10 | CC(C)S(=O)(=O)c1ccc(-c2cnc(N)c(-c3nnc(-c4ccc(CN)cc4)o3)n2)cc1 [IA-222, 3-[5-[4-(aminomethyl)phenyl]-1,3,4-oxadiazol-2-yl]-5-(4-isopropylsulfonylphenyl)pyrazin-2-amine]
10 to 100 | CN(C)C(=O)c1ccc(-c2cnc(N)c(-c3nnc(-c4ccnc(N)c4)o3)n2)cc1 [IA-223, 4-[5-amino-6-[5-(2-amino-4-pyridyl)-1,3,4-oxadiazol-2-yl]pyrazin-2-yl]-N,N-dimethyl-benzamide]
100 to 5000 | NCCSc1ccccc1-c1cnc(N)c(-c2nnc(-c3ccccc3)o2)n1 [IA-224, 5-(2-(2-aminoethylthio)phenyl)-3-(5-phenyl-1,3,4-oxadiazol-2-yl)pyrazin-2-amine]
10 to 100 | CC(C)S(=O)(=O)c1ccc(-c2cnc(N)c(-c3nnc(-c4ccc(CNCCN(C)C)cc4)o3)n2)cc1 [IA-225, N-[[4-[5-[3-amino-6-(4-isopropylsulfonylphenyl)pyrazin-2-yl]-1,3,4-oxadiazol-2-yl]phenyl]methyl]-N′,N′-dimethyl-ethane-1,2-diamine]
≤ 10 | CNCc1csc(-c2nnc(-c3nc(-c4ccc(S(=O)(=O)C(C)C)cc4)cnc3N)o2)c1 [IA-226, 5-(4-isopropylsulfonylphenyl)-3-[5-[4-(methylaminomethyl)-2-thienyl]-1,3,4-oxadiazol-2-yl]pyrazin-2-amine]
